Test results as given in PMC12703741, “Light-Activated Metal-Dependent Protein Degradation: A Heterobifunctional Ruthenium(II) Photosensitizer Targeting New Delhi Metallo-β-lactamase 1” (Journal of the American Chemical Society, 2025).
Where two headings read alike, the source gives them in different places.

Key:
[1] = system: seven mammalian cell lines; conditions: panel of seven mammalian cell lines including HepG2
[2] = Photostability by UV-Vis in PBS; format: physicochemical; conditions: 10 μM, 450 nm
Procedure: Both complexes were stable up to and including 23 J cm^–2 (Figure S5). The lifetime of the excited state is one of the key factors which affect ROS generation. […] To quantify the generation of ^1O2 produced by the complexes, 1,3-diphenylisobenzofuran (DPBF) was used as a ^1O2 scavenger. […]
spectra of both compounds in PBS ( 10 μM) under light irradiation (450 nm, 23 J cm -2 over 240 […]
1.2.4 Electron Paramagnetic Resonance (EPR)
All EPR measurements were performed using a Bruker Magnettech spectrometer (ESR5000), Bruker (Germany), at room temperature. EPR samples were transferred to a 20 μL BLAUBRAND micropipette and spectra were recorded at 9.47 GHz microwave frequency, 2 mW microwave power, 100 kHz modulation frequency and 0.1 mT modulation amplitude. The field was scanned from 331.3 mT to 343.3 mT and a single scan was acquired.

NDM-1 [3] = target: T1, NDM-1 (Klebsiella pneumoniae, UniProt C7C422)
NDM-1 in E. coli NDM-1 = NDM-1 in E. coli NDM-1 (Klebsiella pneumoniae, UniProt C7C422); conditions: E. coli NDM-1, nitrocefin
Procedure: shaking at 180 rpm for 18 hours. The overnight suspensions were subcultured (1:100) in fresh LB and incubated to yield an OD600 of 0.55-0.60. The were harvested and pelleted at 3500  g for 15 minutes at 4 °C. The pellets were washed with PBS and pelleted again under the same
conditions. The bacteria were then stored as pellets at 4 C until required for the assay and to
be used within 5 hours. To prepare the bacteria fo r the assay, a pellet was resuspended in an
adjusted volume of fresh PBS to achieve an OD600 ≈ 5.0 and then kept at 4 C for 1 hr before
being used. The bacteria were then diluted to OD600 ≈ 2.0 in fresh PBS and used immediately.
inhibitor control, and one row of Bacteria Buffer B (50 µL) which served as a no-bacteria
control (providing five rows in total). Bacteria stock (OD600 ≈ 2.0, 40 µL, final concentration
of bacteria in well = OD600 ≈ 0.8) was added to each well of the first four rows, the plate was
sealed, and the samples then pre-incubated for 60 min under either ‘dark’ or ‘light’ conditions
Under ‘dark’ conditions, the plate was left sealed in a
substrate in well = 100 µM) was conducted manually and then the plate immediately resealed
substrate had been completely consumed. Method conditions are as follows: cycle time = 100

[4] = 1O2 quantum yield by DPBF photooxidation; format: physicochemical; conditions: oxygenated methanol, 450 nm
Procedure: The 1O2 quantum yields were determined by tracking the photooxidation of 1,3-
fully aerated and exposed to LED irradiation at 450 nm (1 3 mW cm−2).
reaction mixture at 411 nm was recorded at one-second intervals.
cumulative absorbance changes at 411 nm versus cumulative irradiation time.

NDM-1 [5] = target: T1, NDM-1; remark: listed apart in the source
Procedure: 1.4.1 Differential Scanning Fluorimetry (DSF)
DSF was performed using the Applied Biosystems QuantStudio 5 thermal cycler (Thermo
Fisher Scientific). Results were analysed and Tm determined with the Applied Biosystems
Protein Thermal Shift Software v1.4 and Tm values determined by the software. DSF was
conducted in sealed MicroAmp Optical 384-Well Reaction Plates (Thermo Fisher Scientific).
at a temperature ramp rate of 0.03 °C/s. For compound-protein interaction studies, a final
containing 5X SYPRO Orange (Thermo Fisher Scientific), 50 mM HEPES and 5%(v/v)
DMSO-d6. The final reaction volume was 20 µL per well. All DMSO compound stocks used
for DSF experiments were freshly prepared from solid stocks. All DSF measurements were
carried out in triplicate and the Tm reported is the mean value and the error is the standard
deviation. For all compounds tested, a no protein control run was included to see potential
changes in fluorescence resulting from a compound-dye interaction.

RAW264.7 = conditions: RAW
[6] = Chromatographic LogD measurement; conditions: pH 7.4
Procedure: ChromLogD measurements were adapted from a previously reported procedure.3 The reversed
phase HPLC measurements were measured using an Agilent 1100 Series, equipped with an
Eclipse Plus C18 column 4.6 x 50 mm, using a gradient of 50 mM ammonium acetate/CH3CN
0 – 100% over 10 min. The mobile phase was adjusted to pH = 7.4 using concentrated sodium
The retention times (log k’) of seven commercially available compounds which cover the log
D range from -0.02 to 3.18 (theophylline, 5-phenyl-1H-tetrazole, benzimidazole, colchicine,
acetophenone, indole, propiophenone, butyrophenone, and benzophenone) were calculated
using the below equation, where tR is the retention time of the compound and t0 is the column
dead time, measured by injecting uracil (0.853 min).
The average retention times (tR) of two consecutive injections of sample were used to calculate
the log k’ values, which were then used to create the standard curve (Figure S1).

NDM-1 [7] = target: T1, NDM-1; format: biochemical; conditions: mixture of NDM-1 and BSA, 0-1000 μM, light 450 nm, 20 J cm^-2
Procedure: 1.8 Protein degradation via SDS-PAGE […]
were made at 10 mM in DMSO and then diluted to the appropriate concentration (1 mM – 10 µM) in 50 mM HEPES pH 7.5. The enzyme stocks (10 µM) were made up in 50 mM HEPES pH 7.5. The compound and enzyme stocks were mixed 1:1 and then pre -incubated for 10 min […]
‘light’ conditions the samples were transferred to a 96 well plate to provide irradiation. For a […]
(208 s, 96 mW cm-2). For a dose of 60 J cm-2 the plate was irradiated immediately (624 s, 96 […]
An aliquot of each sample was mixed with SDS-sample buffer (NuPAGE® LDS Sample buffer 4x) and heated to 95°C for 3 min. The samples were loaded on to the gel (NuPAGE® 4-12% Bis-tris gel) and run at 200V/125 mA for 30 min (1 gel per Gel box) or 60 min (2 gels per Gel box). SDS-PAGE gels were imaged using a Cytiva Amersham ImageQuant™ 800.
Densitometry of gel bands was measured and processed using Fiji (ImageJ).
1.8.3 BSA+NDM-1 selectivity experiment […]
nm, 20 J cm-2). Lane 1: Ladder; Lane 2: NDM-1 – no compound control (dark); Lane 3: BSA – no compound control (dark); Lane 4: NDM-1 + BSA - no compound control (dark); Lane 5: NDM-1 + BSA + 1 eq. compound (dark); Lane 6: NDM-1 + BSA + 10 eq. compound (dark); Lane 7: NDM-1 + BSA + 100 eq. compound (dark); Lane 8: NDM-1 + BSA - no compound control (light); Lane 9: NDM-1 + BSA + 1 eq. compound (light); Lane 10: NDM-1 + BSA + 10 eq. compound (light); Lane 11: NDM-1 + BSA + 100 eq. compound (light). […]
the dark (left) and under light irradiation (450 nm, 20 J cm-2).

[8] = Luminescence lifetime of the excited state; format: physicochemical; conditions: PBS
From the text: 1.2.6 Luminescence lifetime
at room temperature with a Horiba Scientific FL-1065 (FluoroLog) using a pulse laser (486
nm) as the excitation source.
Lifetime of excited state (ns)

T1 sequence (C7C422 31-270 limits assumed): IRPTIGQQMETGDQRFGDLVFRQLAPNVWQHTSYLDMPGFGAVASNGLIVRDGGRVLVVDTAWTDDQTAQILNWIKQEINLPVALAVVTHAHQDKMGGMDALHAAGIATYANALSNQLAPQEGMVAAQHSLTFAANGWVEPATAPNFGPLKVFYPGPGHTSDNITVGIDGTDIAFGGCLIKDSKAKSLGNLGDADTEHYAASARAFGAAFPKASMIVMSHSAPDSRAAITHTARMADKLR
NDM-1 in E. coli NDM-1, sequence (C7C422 29-270 limits assumed): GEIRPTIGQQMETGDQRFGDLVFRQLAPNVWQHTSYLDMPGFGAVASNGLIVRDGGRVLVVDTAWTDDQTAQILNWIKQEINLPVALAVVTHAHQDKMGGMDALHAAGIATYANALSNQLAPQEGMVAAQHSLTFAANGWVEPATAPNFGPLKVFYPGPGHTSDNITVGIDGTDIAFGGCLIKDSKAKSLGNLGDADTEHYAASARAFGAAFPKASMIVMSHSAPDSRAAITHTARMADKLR

F[P-](F)(F)(F)(F)F.F[P-](F)(F)(F)(F)F.[Ru+2].c1ccc(-c2ccccn2)nc1.c1ccc(-c2ccccn2)nc1.c1ccc(-n2cnc3c4cccnc4c4ncccc4c32)cc1 [Ru2, [Ru(2,2'-bipyridine)2(1-phenyl-imidazo[4,5,f][1,10]phenanthroline)](PF6)2]
LD50 (HaCaT; 24 h): > 50 µM | LD50 (HaCaT; 48 h): > 50 µM | LD50 (HCT116; HCT116, 24 h): > 50 µM | LD50 (HCT116; HCT116, 48 h): > 50 µM | Cytotoxicity (no cytotoxicity up to) [1]: > 50 µM | Light dose up to which complex is stable [2]: ≥ 23 J cm^–2 | Fold difference in IC50(light) between Ru1 and untargeted control Ru2 (NDM-1 [3]; 450 nm, 20 J cm^-2): approximately 25 fold | IC50 (NDM-1 [3]; read-out: IC50(light), recombinant NDM-1, nitrocefin, light 450 nm, 20 J cm^-2): 5.6 ± 0.5 µM | IC50(dark) (NDM-1 [3]; recombinant NDM-1, nitrocefin, dark): no inhibition | LD50 (hTERT RPE-1; RPE1, 24 h): > 50 µM | LD50 (hTERT RPE-1; RPE1, 48 h): > 50 µM | IC50(dark) (NDM-1 in E. coli NDM-1; dark): no inhibition | IC50(light) (NDM-1 in E. coli NDM-1; light 450 nm, 60 J cm^-2): no inhibition | 1O2 quantum yield (ΦΔ) [4]: 0.87 | Change in melting temperature (ΔT) of NDM-1 (NDM-1 [5]; compound 4 μM): 0.0 °C | Change in melting temperature (ΔT) of NDM-1 (NDM-1 [5]; compound 16 μM): 0.0 °C | Change in melting temperature (ΔT) of NDM-1 (NDM-1 [5]; compound 63 μM): 0.0 °C | Effect on melting temperature of NDM-1 (NDM-1 [5]; in words): no effect | LD50 (HepG2; HepG2, 24 h): > 50 µM | LD50 (HepG2; HepG2, 48 h): > 50 µM | LD50 (RAW264.7; 24 h): > 50 µM | LD50 (RAW264.7; 48 h): > 50 µM | ChromLogD [6]: 1.21 | Degradation of NDM-1 vs BSA (band intensity) (NDM-1 [7]): both NDM-1 and BSA band intensities were diminished | Luminescence lifetime of excited state [8]: 463 ns
